Laboratory results reported in patent US20250041303A1, “COMBINATION THERAPY FOR CANCER TREATMENT” (INSTITUTE FOR CANCER RESEARCH D/B/A THE RESEARCH INSTITUTE …, priority 2021, published 2025).

What was measured:
[1] = system: A1847 Parental or dBET6-R cells; assay: Western blot for cross-resistance to other PROTACs; type: cell-based; conditions: A1847 dBET6-R vs parental; 1 μM, 24 hours
[2] = system: HCT-15, DLD-1 and CAKI-1 cells (MDR1 overexpressing); assay: CellTiter-Glo cell viability of MDR1 overexpressing vs low MDR1 cancer cell lines; conditions: HCT-15, DLD-1, CAKI-1 vs A1847, SUM159, MOLT4; escalating doses, 5 days
[3] = target: T1, CDK9 (Homo sapiens, UniProt P50750); assay: Western blot of CDK9 degradation in DLD-1 cells; type: cell-based; design: endogenous in cells; host or cells: DLD-1; conditions: 4 hours
T1 sequence (P50750 whole entry): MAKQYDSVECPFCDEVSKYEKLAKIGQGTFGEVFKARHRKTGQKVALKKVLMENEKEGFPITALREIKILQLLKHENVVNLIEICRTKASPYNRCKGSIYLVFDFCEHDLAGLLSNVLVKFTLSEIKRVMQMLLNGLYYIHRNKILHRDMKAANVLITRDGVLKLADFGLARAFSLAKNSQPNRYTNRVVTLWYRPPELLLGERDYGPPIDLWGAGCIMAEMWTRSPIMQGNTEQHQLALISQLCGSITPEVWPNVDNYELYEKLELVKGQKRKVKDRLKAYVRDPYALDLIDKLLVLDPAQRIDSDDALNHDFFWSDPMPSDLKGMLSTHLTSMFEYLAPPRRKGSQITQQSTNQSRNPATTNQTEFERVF
T1 sequence (O60563 whole entry partner): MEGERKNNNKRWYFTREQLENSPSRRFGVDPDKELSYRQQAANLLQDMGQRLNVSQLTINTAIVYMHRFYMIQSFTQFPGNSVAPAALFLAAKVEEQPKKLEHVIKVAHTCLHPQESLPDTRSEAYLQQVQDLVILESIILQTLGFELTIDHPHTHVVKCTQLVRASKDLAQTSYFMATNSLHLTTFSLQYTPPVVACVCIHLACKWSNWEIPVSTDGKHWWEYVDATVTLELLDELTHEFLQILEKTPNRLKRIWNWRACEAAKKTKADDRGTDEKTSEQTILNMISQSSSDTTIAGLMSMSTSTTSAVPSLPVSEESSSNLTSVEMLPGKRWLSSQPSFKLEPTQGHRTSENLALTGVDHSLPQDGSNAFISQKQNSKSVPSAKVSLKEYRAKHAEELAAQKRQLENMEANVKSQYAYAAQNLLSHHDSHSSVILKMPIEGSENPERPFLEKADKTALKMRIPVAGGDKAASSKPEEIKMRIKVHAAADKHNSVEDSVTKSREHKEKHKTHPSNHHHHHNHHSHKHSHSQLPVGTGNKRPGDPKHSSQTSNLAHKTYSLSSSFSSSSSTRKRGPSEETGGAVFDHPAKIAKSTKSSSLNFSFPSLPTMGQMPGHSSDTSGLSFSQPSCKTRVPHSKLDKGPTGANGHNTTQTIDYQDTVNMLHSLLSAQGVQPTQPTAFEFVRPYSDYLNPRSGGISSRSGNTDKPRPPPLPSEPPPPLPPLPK
Description: (§2) Samples were harvested in MIB lysis buffer (50 mM HEPES (pH 7.5), 0.5% Triton X-100, 150 mM NaCl, 1 mM EDTA, 1 mM EGTA, 10 mM sodium fluoride, 2.5 mM sodium orthovanadate, 1× protease inhibitor cocktail (Roche), and 1% each of phosphatase inhibitor cocktails 2 and 3 (Sigma)). Particulate was removed by centrifugation of lysates at 21,000 rpm for 15 minutes at 4° C. Lysates were subjected to SDS-PAGE chromatography and transferred to PVDF membranes before western blotting with primary antibodies. […] Secondary HRP-anti-rabbit and HRP-anti-mouse were obtained from ThermoFisher Scientific. SuperSignal West Pico and Femto Chemiluminescent Substrates (Thermo) were used to visualize blots.

[4] = system: A1847 and SUM159 parental and degrader-resistant cells; assay: CellTiter-Glo cell viability, parental vs degrader-resistant cells
[5] = system: MDR1 (ABCB1); assay: Single-run proteomics (LC-MS/MS, label-free quantitation) of degrader-resistant cells; type: cell-based, human; conditions: A1847 cells chronically exposed to the degrader (degrader-R) vs parental
Description: To determine changes in cells chronically exposed to BET or CDK9 PROTACs, we performed single-run proteome analysis as previously described (Lai et al., Front. Oncol., 2020, 10, 2336). Briefly, WT or PROTAC-R cells were lysed in 50 mM HEPES pH 8.0+4% SDS, and 100 μg of proteins were digested using LysC and trypsin. Digested peptides were isolated using C-18 and PGC columns, then dried and cleaned with ethyl acetate. Three […] peptides were analyzed using LC-MS/MS. MaxQuant normalized LFQ values were imported into Perseus software (1.6.2.3) and filtered in the following manner: kinases identified by site only were removed, reverse, or potential contaminant were removed then filtered for kinases identified by >1 unique peptide. Protein LFQ values were log 2 transformed, filtered for a minimum valid number of 3, normalized using Z-scores, annotated, and subjected to a Student's t-test with comparing […]. […]
Proteolytic peptides were resuspended in 0.1% formic acid and separated with a Thermo Scientific RSLC nano Ultimate 3000 LC on a Thermo Scientific Easy-Spray C18 PepMap 75 μm×50 cm C-18 2 μm column. […] Eluted peptides were analyzed by Thermo Scientific Q Exactive or Q Exactive plus mass spectrometers utilizing a top 15 methodology in which the 15 most intense peptide precursor ions were subjected to fragmentation. […]
Raw data analysis of LFQ experiments was performed using MaxQuant software 1.6.1.0 and searched using Andromeda 1.5.6.0 against the Swiss-Prot human protein database (downloaded on Apr. 24, 2019, 20402 entries). […] LFQ quantitation was performed using MaxQuant with the following parameters; LFQ minimum ratio count: Global parameters for protein quantitation were as follows: label minimum ratio count: 1, peptides used for quantitation: unique, only use modified proteins selected and with normalized average ratio estimation selected. Match between runs was employed for LFQ quantitation and the significance threshold of the ion score was calculated based on a false discovery rate of <1%.

[6] = target: T1, CDK9; assay: Western blot of CDK9 degradation, A1847 parental vs Thal-R cells; type: cell-based
Description: as §2

[7] = system: A1847 dBET6-R or Thal-R cells; assay: Apoptosis by western blot in degrader-resistant A1847 cells; type: cell-based; conditions: 2 μM, 4 hours
Description: as §2

[8] = target: T2, MDR1 (Homo sapiens, UniProt P08183); assay: Rhodamine 123 efflux assay in degrader-resistant cells; type: cell-based; design: endogenous in cells; host or cells: A1847 parental, dBET6-R, Thal-R; SUM159 parental, MZ1-R; conditions: A1847 dBET6-R or Thal-R cell lines; 2 μM
T2 sequence (P08183 whole entry): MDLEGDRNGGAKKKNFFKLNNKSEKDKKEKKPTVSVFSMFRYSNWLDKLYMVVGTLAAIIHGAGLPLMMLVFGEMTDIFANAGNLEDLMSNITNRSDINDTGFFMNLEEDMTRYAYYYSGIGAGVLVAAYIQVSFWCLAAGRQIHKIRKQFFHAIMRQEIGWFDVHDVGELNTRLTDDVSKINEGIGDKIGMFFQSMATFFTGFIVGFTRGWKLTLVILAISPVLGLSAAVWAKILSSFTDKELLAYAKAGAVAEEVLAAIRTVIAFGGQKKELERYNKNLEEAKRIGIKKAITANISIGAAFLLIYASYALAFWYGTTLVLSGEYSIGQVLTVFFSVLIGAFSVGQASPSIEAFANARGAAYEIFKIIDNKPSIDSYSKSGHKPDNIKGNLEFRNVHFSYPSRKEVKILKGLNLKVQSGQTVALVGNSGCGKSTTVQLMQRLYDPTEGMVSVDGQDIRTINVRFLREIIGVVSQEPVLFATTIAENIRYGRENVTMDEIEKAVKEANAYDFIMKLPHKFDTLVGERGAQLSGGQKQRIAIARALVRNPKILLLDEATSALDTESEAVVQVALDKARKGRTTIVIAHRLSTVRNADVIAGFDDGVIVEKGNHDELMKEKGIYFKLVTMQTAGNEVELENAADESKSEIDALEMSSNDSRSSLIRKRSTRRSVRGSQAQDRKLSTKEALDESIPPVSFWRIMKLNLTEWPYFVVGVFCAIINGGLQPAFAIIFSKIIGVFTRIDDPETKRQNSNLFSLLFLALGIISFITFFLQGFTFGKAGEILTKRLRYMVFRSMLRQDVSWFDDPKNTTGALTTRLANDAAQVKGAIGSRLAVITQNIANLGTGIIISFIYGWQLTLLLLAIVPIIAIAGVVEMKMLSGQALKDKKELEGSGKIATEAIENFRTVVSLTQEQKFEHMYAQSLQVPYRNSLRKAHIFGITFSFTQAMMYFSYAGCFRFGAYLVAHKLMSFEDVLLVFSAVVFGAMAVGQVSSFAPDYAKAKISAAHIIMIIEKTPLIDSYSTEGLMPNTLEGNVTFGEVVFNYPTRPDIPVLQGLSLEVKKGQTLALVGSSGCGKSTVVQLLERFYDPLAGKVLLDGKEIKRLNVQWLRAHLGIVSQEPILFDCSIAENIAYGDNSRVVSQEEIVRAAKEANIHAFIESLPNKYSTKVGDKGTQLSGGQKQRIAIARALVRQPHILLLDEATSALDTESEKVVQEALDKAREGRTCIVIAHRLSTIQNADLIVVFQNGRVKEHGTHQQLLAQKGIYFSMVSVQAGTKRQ
Description: (§1) Efflux assay was performed according to manufacturer's protocol (Millipore Sigma #ECM910). Cells were resuspended in cold efflux buffer and incubated with Rhodamine 123 for 1 hour on ice. Cells were centrifuged and treated in warm efflux buffer with DMSO or drug for 30-60 minutes, washed with cold PBS, and effluxed dye was quantified with a plate reader at an excitation wavelength of 485 nm and an emission wavelength of 530 nm.

[9] = system: ERBB3 and downstream AKT signaling; assay: Western blot of MEKi-induced ERBB3/AKT signaling in LS513 cells; type: cell-based; design: dose or concentration left out as unconfirmed; conditions: LS513, 48 hours
Description: as §2

[10] = target: T3, KRASG12C (Homo sapiens, UniProt P01116, G12C); assay: Western blot of KRASG12C and effector signaling in SW1463 cells; type: cell-based
T3 construct: endogenous in cells; host or cells: SW1463
Description: as §2

[11] = system: LS513 xenografts; assay: Tumor xenograft experiment; type: in vivo, nude mice; conditions: MS934 50 mg/kg intraperitoneal daily, lapatinib 100 mg/kg oral gavage daily, or the combination; two weeks
Description: Animal studies were conducted in accordance with the guidelines set forth by the Institutional Animal Care and Use Committee. 1×10^6 LS513 cells were prepared in growth factor reduced Matrigel (Corning) 1:1 and injected into the right flank of 6- to 8-weeks old nude mice. […] For in vivo studies, MS934 was resuspended in 5% N-methyl-2-pyrrolidinone (NMP), 5% Kolliphor HS-15 (sigma) and 90% saline; and delivered by intraperitoneal injection (daily). […] Tumor volumes were evaluated every two days using a caliper and the volume was calculated applying the following formula: [(width)^2×(length)]/2.

[12] = target: T4, BRD4 (BET proteins) (Homo sapiens, UniProt O60885); assay: Western blot of BET protein/BRD4 degradation in DLD-1 cells; type: cell-based; conditions: 4 hours
T4 construct: endogenous in cells; host or cells: DLD-1
Description: as §2

[13] = system: DLD-1 cells; assay: Colony formation assay (14 days) in DLD-1 cells
[14] = system: BET proteins (BRD2, BRD3 or BRD4); assay: Western blot of BET protein degradation, parental vs degrader-resistant cells; type: cell-based; conditions: A1847 dBET6-R or MZ1-R vs parental; 2 μM, 4 hours
Description: as §2

[15] = target: T2, MDR1; assay: Rhodamine 123 efflux assay in DLD-1 cells; type: cell-based; design: endogenous in cells; conditions: 2 μM
Description: as §1

[16] = target: T2, MDR1; assay: Rhodamine 123 efflux assay in LS513 cells; type: cell-based; design: endogenous in cells; conditions: 2 μM
Description: Efflux assay was performed according to manufacturer's protocol (Millipore Sigma #ECM910). […] Cells were centrifuged and treated in warm efflux buffer with DMSO or drug for 30-60 minutes, washed with cold PBS, and effluxed dye was quantified with a plate reader at an excitation wavelength of 485 nm and an emission wavelength of 530 nm.

[17] = system: MEK1/2; assay: Western blot of MEK1/2 degradation and ERK1/2 phosphorylation in LS513 cells; type: cell-based; conditions: LS513 (MDR1-overexpressing) vs SKCO1; escalating doses, 4 hours
Description: as §2

[18] = system: MEK1/2; assay: Western blot of MEK1/2 degrader target in DLD-1 cells; type: cell-based; conditions: 1 μM, 24 hours
[19] = system: K-ras mutant CRC cell lines (LS1034, LS513, SW948, SW1463, SKCO1, NCIH747, SW620); assay: Cell viability (CellTiter-Glo) and colony formation of K-ras mutant CRC cell lines; conditions: escalating doses 5 days (viability); 1 μM 14 days (colony formation)
[20] = system: SW1463 or SW837 KRASG12C cells; assay: Colony formation assay (14 days) in KRASG12C CRC cells; conditions: 1 μM
[21] = SW1463, lapatinib 5 μM or tariquidar 0.01 μM, 48 hours

`CC(C)(C)c1cnc(CSc2cnc(NC(=O)C3CCN(CC(=O)NCCOCCOCCOCCNc4cccc5c4C(=O)N(C4CCC(=O)NC4=O)C5=O)CC3)s2)o1` (centres unmarked) [Thal SNS 032] was tested, and the “cross-resistance to PROTACs targeting other proteins” value [1] was “cross-resistant”, the “cell viability of MDR1 overexpressing cells” value [2] was “did not reduce cell viability to the extent of cancer cell lines expressing low or no detectable MDR1 protein” and the “reduction of intended degrader target (CDK9)” value ([3]; DLD-1, single agent, escalating doses, vs A1847 or MOLT4) was “did not reduce the intended degrader target to the extent observed with degrader-sensitive A1847 or MOLT4 cells”. The “degradation efficiency of CDK9 on co-treatment with tariquidar” value ([3]; DLD-1, increasing doses plus tariquidar 0.1 μM) was “improved the degradation efficiency”, the “acquired resistance (cell viability dose-response)” value ([4]; A1847 parental vs chronically exposed cells, escalating doses, 5 days) was “acquire resistance” and the “MDR1 protein levels upregulated relative to parental cell lines by LFQ analysis” value [5] was ~2.5 fold. For the same compound, the “CDK9 protein levels and phosphorylation of RNA polymerase (S2)” value ([6]; chronically exposed A1847 cells vs parental, increasing doses, 24 hours) was “did not inhibit cell viability or reduce CDK9 protein levels”.

For `CS(=O)(=O)CCNCc1ccc(-c2ccc3ncnc(Nc4ccc(OCc5cccc(F)c5)c(Cl)c4)c3c2)o1` [lapatinib], the “apoptosis in degrader-resistant cell lines” value [7] was “resulted in apoptosis similar to tariquidar treatment”, the “degradation of CDK9 by Thal SNS 032 on combined treatment” value ([3]; DLD-1, increasing doses of Thal SNS 032 plus the compound at 2 μM) was “improving degradation of CDK9” and the “MDR1 drug efflux activity (Rhodamine 123 efflux)” value (from here on “MDR1 drug efflux activity”) [8] was “reduced MDR1 drug efflux activity similar to that observed with tariquidar”. The “MEK inhibitor-induced ERBB3 and downstream AKT and RAF signaling” value [9] was “could be blocked by lapatinib treatment”, the “sensitivity of degrader-resistant cells vs parental cells (cell viability)” value ([4]; increasing concentrations, A1847 dBET6-R, Thal-R, MZ1-R and SUM159 MZ1-R) was “more sensitive” and the “PROTAC-mediated degradation of KRASG12C on combining with LC-2” value [10, 21] was “improved PROTAC-mediated degradation of KRASG12C reducing protein levels”. The “phosphorylation of MEK and ERK on combining with LC-2” value [10, 21] was “reduced phosphorylation of MEK and ERK”, the “CRAF and AKT phosphorylation and apoptosis on combining with LC-2” value ([10]; SW1463, lapatinib 5 μM, 48 hours) was “uniquely reduced CRAF and AKT phosphorylation, as well as induced apoptosis” and the “tumor growth (tumor volume)” value [11] was “ineffective”. The “reduction in concentrations of dBET6 required to degrade BRD4 when combined” value ([12]; combined with the compound at 2 μM) was 100 fold, the “dBET6-mediated degradation of BRD4 on combined treatment” value ([12]; increasing doses of dBET6 plus the compound at 2 μM) was “improved dBET6-mediated degradation of BRD4” and the “growth inhibition of colonies on combination with Thal SNS 032” value ([13]; compound at 2 μM, 14 days) was “enhancing growth inhibition of colonies”. The “colony formation on co-treatment with dBET6” value ([13]; dBET6 0.1 μM plus the compound at 2 μM, 14-day period) was “sensitized DLD-1 cells to dBET6”, the “degradation of BET proteins in degrader-resistant cell lines” value [14] was “resulted in degradation of BET proteins” and the “MDR1 drug efflux activity” value [15] was “reduced MDR1 drug efflux activity similar to tariquidar-treatment”. For the same compound, the “degradation of CDK9 in degrader-resistant cell lines” value ([6]; A1847 Thal-R vs parental, 2 μM, 4 hours) was “resulted in degradation of BET proteins (FIG. 5, Panel G; FIG. 12, Panels E and F) or CDK9” and the “MDR1 drug efflux activity” value [16] was “reduced MDR1 drug efflux activity similar to tariquidar”.

For `Cc1ncsc1-c1ccc([C@H](C)NC(=O)[C@@H]2C[C@@H](O)CN2C(=O)[C@@H](NC(=O)CCCCCCCCCCNCCCONC(=O)c2ccc(F)c(F)c2Nc2ccc(I)cc2F)C(C)(C)C)cc1` [MS432], the “MEK1 or MEK2 protein levels, ERK1/2 phosphorylation, apoptosis” value [17] was “did not reduce MEKI or MEK2 protein levels, inhibit ERK1/2 phosphorylation or induce apoptosis”, the “protein reduction on co-treatment with tariquidar” value [18] was “improved the protein reduction relative to single agent therapies” and the “resistance of MDR1 overexpressing vs MDR1 low expressing CRC cell lines” value [19] was “more resistant”.

`C=C(F)C(=O)N1CCN(c2nc(OC[C@@H]3CCCN3CCCOCCC(=O)N[C@H](C(=O)N3C[C@H](O)C[C@H]3C(=O)NCc3ccc(-c4scnc4C)cc3)C(C)(C)C)nc3c2CCN(c2cccc4cccc(Cl)c24)C3)C[C@@H]1CC#N` [LC-2] was tested, and the “KRASG12C protein levels, single agent” value ([10]; SW1463 cells, 1 μM) was “had no impact on KRASG12C protein levels” and the “sensitivity (colony formation)” value [20] was “intrinsic resistance”.
